The source made the active and inactive calls. The rule behind the calls is not given here.
Columns and labels:
[1] = tested on: HaCaT; test: Effect on p65 nuclear expression in human HaCaT cells at 100 ug/mL after 12 hrs by Western blot; assay type: functional, cell-based
[2] = tested on: HaCaT; test: Increase in serine palmitoyltransferase protein expression in human HaCaT cells at 100 ug/mL by Western blot relative to untreated control; assay type: functional
[3] = tested on: HaCaT; test: Activation of NF-kappaB expressed in human HaCaT cells by luciferase reporter gene assay; assay type: cell-based
[4] = tested on: HaCaT; test: Increase in serine palmitoyltransferase 2 mRNA expression in human HaCaT cells by RT-PCR relative to untreated control; assay type: functional
[5] = tested on: HaCaT; test: Cytotoxicity against human HaCaT cells at 50 to 200 ug/mL by MTT assay; assay type: cell-based
[6] = tested on: HaCaT; test: Increase in serine palmitoyltransferase 1 mRNA expression in human HaCaT cells by RT-PCR relative to untreated control; assay type: functional
[7] = tested on: HaCaT; test: Increase in serine palmitoyltransferase protein expression in human HaCaT cells at 30 ug/mL by Western blot relative to untreated control; assay type: functional

Row | SMILES | Activity [1] | Activity [2] | Activity [3] | Activity [4] | Activity [5] | Activity [6] | Activity [7]
1 | COC(=O)[C@@H](Cc1ccc(O)c(O)c1)OC(=O)/C=C/c1ccc(O)c2c1[C@H](C(=O)O)[C@@H](c1ccc(O)c(O)c1)O2 | inactive | 81% | inactive | 159% | Non-toxic | 148% | 20.2%
2 | COC(=O)[C@H]1c2c(/C=C/C(=O)O[C@H](Cc3ccc(O)c(O)c3)C(=O)O)ccc(O)c2O[C@@H]1c1ccc(O)c(O)c1 | inactive | 23% | inactive | 139% | Non-toxic | 139% | 8.9%
3 | NC(=O)c1cccnc1 [NIACINAMIDE] | – | 57.3% | – | 128% | – | 127% | –
4 | O=C(/C=C/c1ccc(O)c2c1[C@H](C(=O)O)[C@@H](c1ccc(O)c(O)c1)O2)O[C@H](Cc1ccc(O)c(O)c1)C(=O)O [LITHOSPERMIC ACID] | inactive | 55% | inactive | 151% | Non-toxic | 121% | 21.7%

From ChEMBL document CHEMBL1153916, “Lithospermic acid derivatives from Lithospermum erythrorhizon increased expression of serine palmitoyltransferase in human HaCaT cells” (Bioorg Med Chem Lett, 2009)
